Values quoted from earlier work, collected in patent US10981914B2, “Toll-like receptor 7 (TLR7) agonists having a tricyclic moiety, conjugates thereof, and methods and uses therefor” (BRISTOL-MYERS SQUIBB COMPANY, priority 2017, dated 2021).

System: IFN-α
Conditions: as measured by IFN-α induction

SMILES: CCCCOc1nc(N)c2c(n1)N(Cc1cccc(CN3CCCC3)c1)CC(=O)N2 [Vesatolimod, vesatolimod]
- potency, fold less than that of the corresponding purine-8-one compound: 100 ×
